The values below come from patent US20250194663A1, “ORAL POUCH PRODUCT CONTAINING AMINO ACID OR SALT THEREOF” (Japan Tobacco Inc., priority 2022, published 2025).

The conditions of data set [1]: cited from earlier work; for pI: amino acid isoelectric point; for pKa (—COOH group) / pKa (—NH3 group): amino acid.
Data set [2] in a line: Spectrocolorimeter (CM-5) measurement of samples before and after adsorption and desorption measurement. Type of data set: physicochemical. As for the experimental part:
Changes in the samples between before and after the measurement of the adsorption and desorption isotherms were measured using Konica Minolta, Inc.'s spectrocolorimeter (CM-5). The measurement conditions were reflection measurement and the SCI method, and the measurements were taken with the observation window of a 3-mm φ target mask covered with the glass container after the adsorption and desorption measurement. A blank tube, with no sample placed in it, was also subjected to the measurement, through which a measurement in a transparent state was determined. The measurements are converted values for a 10° field of view and a D65 light source.

For data set [3] the following is noted: for State of sample after the end of the measurement: FIG. 2, after adsorption and desorption measurement; for Deliquescence: conclusion from isotherm and appearance; for Appearance after storage: tubes tightly closed, stored 9 days at normal temperature after measurement.
Procedure: For the measurement, MicrotracBEL (MicrotracBEL Corporation) BELSORP MAX III was used. As a pretreatment of samples, the samples were vacuum-dried at 105° C. until the leakage was 1 Pa/min or less.
The measurement conditions were set as follows. • At relative pressures (humidity levels) from 0.025 to 0.3: measurements are taken at relative pressure intervals of 0.025 • At relative pressures (humidity levels) beyond 0.3 to 0.95: measurements are taken at relative pressure intervals of 0.05
After reaching a relative pressure of 0.95: measurements are taken at equal relative pressure intervals until a relative pressure of 0.1 (For TSP, however, the relative pressure limit was set to approximately 0.5 because measurement accuracy is reduced due to a prolonged measurement time.)
The equilibration conditions were that at relative pressures of 0.9 or lower, pressure changes should be 0.3% or smaller variations over 300 sec, and that at relative pressures of 0.9 or higher, pressure changes should be 0.3 Pa, as a pressure value, or smaller variations over 300 sec.
Setting [4] is: after adsorption and desorption measurement.
The mark [5] stands for this setting: before adsorption and desorption measurement.
Setting [6] is: 9 days after adsorption and desorption measurement.

`CC[C@H](C)[C@H](N)C(=O)O` [Isoleucine]: in data set [1], the pI is 6.02 and the “pKa (—COOH group)” value was 2.36.

As to `C[C@H](N)C(=O)O` [Alanine], in data set [1], the pI is 6 and the “pKa (—COOH group)” value is listed as 2.34.

For the molecule `CC(C)[C@H](N)C(=O)O` [Valine], in data set [1], the pI is reported as 5.96 and the “pKa (—NH3 group)” value is recorded as 9.62.

For `CSCC[C@H](N)C(=O)O` [Methionine], in data set [1], the pI is 5.74, the “pKa (—COOH group)” value was 2.28 and the “pKa (—NH3 group)” value is reported as 9.21.

On to `O=C(O)[C@@H]1C[C@@H](O)CN1` [Hydroxyproline], for which, in data set [1], the “pKa (—COOH group)” value was 1.82 and the “pKa (—NH3 group)” value was 9.65.

Turning to `N=C(N)NCCC[C@H](N)C(=O)O` [Arginine, arginine], in data set [2] (setting [4]), the “L* (D65)” value was 94.8, the “a* (D65)” value was −0.2 and the “b* (D65)” value is on record as 0.1. Further, in data set [2] (setting [5]), the “L* (D65)” value was 99.0, the “a* (D65)” value was −0.1 and the “b* (D65)” value is 0.4. Moreover, in data set [1], the pI was 10.76 and the “pKa (—COOH group)” value is listed as 2.17.

As for `N[C@@H](CO)C(=O)O` [Serine], in data set [1], the pI is given as 5.68.

Regarding `NCCCC(=O)O` [GABA, γ-aminobutyric acid], in data set [2] (setting [6]), the “L* (D65)” value was 33.1 and the “a* (D65)” value is on record as −0.3. Also, in data set [2] (setting [4]), the “L* (D65)” value stood at 26.5, the “a* (D65)” value was −0.3 and the “b* (D65)” value is reported as −0.9. Besides, in data set [2] (setting [5]), the “L* (D65)” value amounted to 87.1 and the “a* (D65)” value is recorded as −0.1. Further, in data set [1], the pI is reported as 7.3 and the “pKa (—COOH group)” value was 4.23. Further, in data set [3], the “State of sample after the end of the measurement” value is “transitioned to a transparent liquid state”, the Deliquescence entry is reported as “have deliquescence” and the Appearance after storage entry is “maintained the degree of transparency”.

With `N[C@@H](CCC(=O)O)C(=O)[O-].[Na+]` [MSG, Na glutamate], in data set [2] (setting [4]), the “L* (D65)” value was 33.7, the “a* (D65)” value is on record as −0.1 and the “b* (D65)” value was −0.2. Moreover, in data set [2] (setting [5]), the “L* (D65)” value came to 84.8, the “a* (D65)” value was −0.2 and the “b* (D65)” value is recorded as 1.1. In data set [3], the “State of sample after the end of the measurement” value is reported as “transitioned to a transparent liquid state”, the Deliquescence result is “have deliquescence” and the Appearance after storage result is given as “became a whitened film form”.

With `NCCCC[C@H](N)C(=O)O` [Lysine], in data set [1], the pI is 9.74 and the “pKa (—COOH group)” value is 2.18.

`NC(=O)C[C@H](N)C(=O)O` [Asparagine]: in data set [1], the pI was 5.41 and the “pKa (—COOH group)” value is listed as 2.02.

As for `N[C@@H](CCC(=O)O)C(=O)O` [Glutamic acid], in data set [2] (setting [6]), the “L* (D65)” value amounted to 53.6 and the “a* (D65)” value is recorded as −0.7. The pI in data set [1] is reported as 3.22.

As to `N[C@@H](CS)C(=O)O` [Cysteine], in data set [1], the pI is recorded as 5.07 and the “pKa (—NH3 group)” value was 10.28.

`N[C@@H](CC(=O)O)C(=O)O` [Aspartic acid]: the pI in data set [1] was 2.77.

`N[C@@H](Cc1ccccc1)C(=O)O` [Phenylalanine]: in data set [1], the pI is listed as 5.48, the “pKa (—COOH group)” value is 1.83 and the “pKa (—NH3 group)” value is reported as 9.13.

For the molecule `N[C@@H](Cc1ccc(O)cc1)C(=O)O` [Tyrosine], the pI in data set [1] is given as 5.66.

As to `O=P([O-])([O-])[O-].[Na+].[Na+].[Na+]` [TSP, trisodium phosphate, reference compound], in data set [2] (setting [4]), the “L* (D65)” value was determined as 92.4, the “a* (D65)” value is on record as −0.1 and the “b* (D65)” value stood at 0.1. Moreover, in data set [2] (setting [5]), the “L* (D65)” value was determined as 98.5, the “a* (D65)” value is given as 0.0 and the “b* (D65)” value is on record as 0.5.

On to `O=C(O)[C@@H]1CCCN1` [Proline], for which the pI in data set [1] was 6.3.

As for `N[C@@H](Cc1c[nH]cn1)C(=O)O` [Histidine], in data set [1], the pI is 7.59.

On to `NCC(=O)O` [Glycine], for which the pI in data set [1] is 5.97.

Regarding `N[C@@H](Cc1c[nH]c2ccccc12)C(=O)O` [Tryptophan], in data set [1], the pI was 5.89 and the “pKa (—COOH group)” value is reported as 2.83.

Consider `C[C@@H](O)[C@H](N)C(=O)O` [Threonine], for which, in data set [1], the pI is on record as 5.6 and the “pKa (—COOH group)” value was 2.09.

As for `O=C1CC[C@@H](C(=O)O)N1` [Pyroglutamic acid], the pI in data set [1] was 5.68.
